Measured values published in patent US9061041B2, “2′-substituted nucleoside derivatives and methods of use thereof for the treatment of viral diseases” (Merck Sharp & Dohme Corp., priority 2011, dated 2015).
pIC50: −log10 of the molar value.

How the values were obtained:
[1] = molecular target: HCV NS5B RNA-dependent RNA polymerase (1b-BKΔ55) (Hepatitis C virus genotype 1b (isolate BK) (HCV), UniProt P26663); experiment: biochemical
[2] = system: human cryopreserved hepatocyte; assay type: in vitro ADME; conditions: human hepatocytes, NTP level over Ki
Experimental: A 2 mM stock solution of the prodrug test compound is prepared in 5% DMSO/95% MeOH to provide a final sample concentration of 10 μM. A 5 μL aliquot is removed from this stock solution and added to 1 mL of either a rat or human cryopreserved hepatocyte sample to provide a control sample at a concentration of 1 million cells/mL. This sample is assayed in triplicate and used as a test sample.
Human and rat hepatocytes are removed from liquid nitrogen storage and thawed by submerging the hepatocyte tube into a pre-heated 37° C. waterbath and gently shaking the tube back & forth until thawed. The thawed hepatocytes are then gently poured into a container of Hepatocyte Basal Medium (50 mL, pre-warmed to 37° C.) and washed. […]
A 1 mL aliquot is removed from the 1 million cells/mL final hepatocyte suspension, analyzed in triplicate and placed into 20 mL scintillation vial without a cap. […]
The incubated hepatocyte suspension samples are transferred to a micro-centrifuge tube using a transfer pipette and centrifuged at 500 rpm for 4 minutes at room temperature. […] The resulting extract solution is then stored in a refrigerator at 4° C. until ready for use, at which point the sample is first subjected to vortexing/sonication to ensure that all hepatocyte cells have burst. […]

Chain of HCV NS5B RNA-dependent RNA polymerase (1b-BKΔ55) (P26663 2420-2955): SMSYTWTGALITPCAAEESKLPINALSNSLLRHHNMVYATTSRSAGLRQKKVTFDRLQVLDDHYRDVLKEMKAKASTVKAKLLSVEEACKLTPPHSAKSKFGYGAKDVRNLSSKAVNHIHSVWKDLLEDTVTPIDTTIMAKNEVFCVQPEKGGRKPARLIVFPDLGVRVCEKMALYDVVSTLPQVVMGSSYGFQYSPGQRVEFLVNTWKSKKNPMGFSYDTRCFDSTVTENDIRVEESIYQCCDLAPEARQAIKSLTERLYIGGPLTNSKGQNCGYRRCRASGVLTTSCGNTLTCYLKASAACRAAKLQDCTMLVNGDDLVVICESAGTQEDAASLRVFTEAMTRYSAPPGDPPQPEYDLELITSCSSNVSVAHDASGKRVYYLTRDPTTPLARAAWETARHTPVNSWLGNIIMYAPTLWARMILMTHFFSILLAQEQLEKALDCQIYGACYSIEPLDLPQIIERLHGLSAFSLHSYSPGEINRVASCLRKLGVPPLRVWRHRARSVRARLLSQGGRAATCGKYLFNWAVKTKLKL

Row | SMILES | pIC50 [1] | Human Hepatocyte NTP (4 hour at 10 μM)/Ki [2]
1 | C[C@@]1(N)[C@H](O)[C@@H](COP(=O)(O)OP(=O)(O)OP(=O)(O)O)O[C@H]1n1cnc2c(=O)[nH]c(N)nc21 [Compound 80] | 6.22 | 
2 | C[C@@]1(N)[C@H](O)[C@@H](COP(=O)(O)OP(=O)(O)OP(=O)(O)O)O[C@H]1n1ccc(N)nc1=O [Compound 81] | 5.64 | 
3 | C[C@@]1(N)[C@H](O)[C@@H](COP(=O)(O)OP(=O)(O)OP(=O)(O)O)O[C@H]1n1ccc(=O)[nH]c1=O [Compound 82] | 4.89 | 
4 | CC(C)OC(=O)[C@H](C)NP(=O)(OC[C@H]1O[C@@H](n2ccc(=O)[nH]c2=O)[C@](C)(N)[C@@H]1O)Oc1ccccc1 (some centres unmarked) [drawing 226] |  | 30 x
5 | CCOC(=O)[C@H](C)NP(=O)(OC[C@H]1O[C@@H](n2cnc3c(OC)nc(N)nc32)[C@](C)(N)[C@@H]1O)Oc1ccccc1 (some centres unmarked) [drawing 225] |  | 32 x
